{
  "source": "PubChem BioAssay AID1919674",
  "molecular_target": "Solute carrier family 12 member 2 (Homo sapiens) (UniProt P55011)",
  "sequence (P55011 whole entry, looked up)": "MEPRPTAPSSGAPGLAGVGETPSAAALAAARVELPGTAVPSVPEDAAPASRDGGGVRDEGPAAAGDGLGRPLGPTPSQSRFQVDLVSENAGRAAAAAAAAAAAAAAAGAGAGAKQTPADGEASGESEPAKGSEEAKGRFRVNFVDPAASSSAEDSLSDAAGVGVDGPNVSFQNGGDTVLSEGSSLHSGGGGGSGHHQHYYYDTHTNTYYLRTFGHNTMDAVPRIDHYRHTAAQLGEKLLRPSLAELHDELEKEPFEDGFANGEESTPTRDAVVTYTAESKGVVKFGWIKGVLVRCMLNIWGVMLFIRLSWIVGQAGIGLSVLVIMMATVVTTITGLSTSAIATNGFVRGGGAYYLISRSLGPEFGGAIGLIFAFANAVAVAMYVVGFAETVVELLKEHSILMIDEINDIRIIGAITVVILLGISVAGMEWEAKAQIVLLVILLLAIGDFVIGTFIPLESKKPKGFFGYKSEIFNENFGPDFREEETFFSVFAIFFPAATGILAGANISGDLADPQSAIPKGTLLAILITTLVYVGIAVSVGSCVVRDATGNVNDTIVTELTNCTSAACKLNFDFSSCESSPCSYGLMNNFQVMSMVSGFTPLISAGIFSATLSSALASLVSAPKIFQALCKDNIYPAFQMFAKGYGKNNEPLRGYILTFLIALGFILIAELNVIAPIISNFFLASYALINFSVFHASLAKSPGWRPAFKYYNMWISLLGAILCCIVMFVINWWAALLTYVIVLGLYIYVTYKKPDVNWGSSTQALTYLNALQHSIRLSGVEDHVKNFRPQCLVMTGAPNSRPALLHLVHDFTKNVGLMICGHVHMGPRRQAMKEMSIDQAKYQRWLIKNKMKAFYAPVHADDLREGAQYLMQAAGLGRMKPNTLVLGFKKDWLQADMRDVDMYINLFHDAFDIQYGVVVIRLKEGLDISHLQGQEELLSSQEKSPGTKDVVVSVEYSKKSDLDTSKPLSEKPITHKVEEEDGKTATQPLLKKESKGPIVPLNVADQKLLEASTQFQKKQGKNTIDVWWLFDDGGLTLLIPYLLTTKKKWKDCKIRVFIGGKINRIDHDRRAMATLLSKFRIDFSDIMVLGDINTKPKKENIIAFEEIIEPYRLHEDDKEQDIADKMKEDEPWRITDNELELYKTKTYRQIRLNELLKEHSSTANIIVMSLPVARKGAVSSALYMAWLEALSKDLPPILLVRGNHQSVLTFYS",
  "assay": "NKCC1 ion transport inhibition – HEK-293 overexpressing cells, thallium flux, dose response (AID 1919674)",
  "conditions": "HEK-293 SLC12A2 OE, thallium flux fluorescence (FLIPR)",
  "data": [
    {"smiles": "[Tl+]", "values": [
      {"measurement": "IC50", "result": 600, "unit": "µM"}
    ]}
  ]
}
